For four compounds, EC50 and Emax results are on record in US7417169B2, “Amino alcohol derivatives, medicinal composition containing the same, and use of these” (Kissei Pharmaceutical Co., Ltd., priority 2003, dated 2008).

What all share (assay type): cell-based
Test [1] has as its target T1, human β3-adrenoceptor (Homo sapiens, UniProt P13945).
T1 construct: SK—N-MC cells (American Type Culture Collection, 1×10^5cell/mL) were put in 96 well plates; host or cells: SK-N-MC cells
Put plainly: Measurement of agonistic activities on human β3-adrenoceptor (cAMP accumulation in SK-N-MC cells). The following applies: for EC50: SK-N-MC cells with CGP-20712A, cAMP, concentration giving 50% of the maximum reaction of isoproterenol, read-out: β3 receptor EC50; for Emax: SK-N-MC cells, maximum reaction relative to maximum reaction of isoproterenol (100%), read-out: β3 receptor I.A. (intrinsic activity). Here is the method:
Measurement of Agonistic Activities on Human β3-Adrenoceptor
Test compounds were dissolved in 50% dimethyl sulfoxide to make a 10^−2 M solution. Then, a series of 1:10 dilutions containing a maximal dose of 1×10^−4 M were prepared using D-PBS (−) (Gibco-BRL: LIFE TECHNOLOGIES). The series were used for a testing sample to measure activity. SK—N-MC cells (American Type Culture Collection, 1×10^5cell/mL) were put in 96 well plates by 100 μL and were cultured for about 24 hours. Forty μL of D-PBS and 20 μL of CGP-20712A (FUNAKOSHI, 3×10^−6 mol/L D-PBS solution) were added in them and incubated for 20 minutes. After that, 20 μL of 3-isobutyl-1-methylxanthine (SIGMA, 1×10^−2 mol/L D-PBS solution) and 20 μL of testing sample were added in them and they were incubated under an atmosphere of 5% CO2 at 37° C. for 30 minutes. cAMP concentrations accumulated in cells were reacted in cAMP-Screen (Applied Biosystems) and were detected by Microplate Luminometer TR717 (Applied Biosystems). The maximum reaction of isoproterenol, a positive contrast, was taken as a 100%, and the concentration of a test compound which gave reaction of the 50% was calculated as an EC50 value. In addition, the ratio of the maximum reaction of the test compound against the maximum reaction of isoproterenol was calculated as an intrinsic activity (I.A.). (R)-3′-[[2-[[2-(3-chlorophenyl)-2-hydroxyethyl]aminoethoxy]-[1,1′-biphenyl]-3-carboxylic acid which was described in WO99/65877 was also examined as a comparison example.
Background: cAMP levels reflect the balance of adenylyl cyclase and phosphodiesterase activity.

For test [2], the target named is T2, human β2-adrenoceptor (Homo sapiens, UniProt P07550, E27Q/G16R).
T2 construct: expressed in transfected cells; host or cells: CHO cells (transient transfection, Lipofectamine 2000)
T2 sequence (P07550 whole entry G16R/E27Q): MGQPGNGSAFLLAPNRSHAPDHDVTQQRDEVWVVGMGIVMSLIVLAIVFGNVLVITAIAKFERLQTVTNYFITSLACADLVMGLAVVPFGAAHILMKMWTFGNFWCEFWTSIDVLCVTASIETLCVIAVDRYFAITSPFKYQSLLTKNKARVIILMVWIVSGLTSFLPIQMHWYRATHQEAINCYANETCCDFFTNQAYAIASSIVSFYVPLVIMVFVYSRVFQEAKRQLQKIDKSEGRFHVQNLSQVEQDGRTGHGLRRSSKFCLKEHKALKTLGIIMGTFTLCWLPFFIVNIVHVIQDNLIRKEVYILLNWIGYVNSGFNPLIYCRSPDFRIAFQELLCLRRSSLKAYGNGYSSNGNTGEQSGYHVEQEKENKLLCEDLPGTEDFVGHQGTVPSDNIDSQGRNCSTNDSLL
Put plainly: Measurement of agonistic activities on human β2-adrenoceptor (cAMP accumulation in transfected CHO cells). The following applies: CHO cells expressing human β2-adrenoceptor; for EC50: cAMP, concentration giving 50% of the maximum reaction of isoproterenol, read-out: β2 receptor EC50; for Emax: maximum reaction relative to isoproterenol (100%), read-out: β2 receptor I.A. (intrinsic activity). The text has this: (§1) Measurement of Agonistic Activities on Human β1- and β2-Adrenoceptors
The primer which added a restriction enzyme recognition region to 5′ end was designed on the basis of the base information that is registered with GenBank/EMBL data base as Accession No. M15169, and the clone was obtained by performance of PCR using human bladder origin cDNA as a template. The clone was inserted into pGEM-T vector and was amplified in Escherichia coli bacteria as a plasmid, and it was purified and the sequence of full length and around of insertion sequence determined by means of 310 Genetic Analyzer (ABI).
2) Preparation of Human β2-Adreoceptor Expressed Cells
The plasmid (80 ng) for expression obtained in the previous section was transfected into 5×10^4 CHO cells suspended in DMEM (Gibco-BRL: LIFE TECHNOLOGIES) containing 10% fetal bovine serum (Sanko Junyaku) by means of Lipofectoamine2000 (Invitrogen). These cells were dispensed in 96 well plate by 5×10^4 cells/100 μL per well and were cultured under an atmosphere of 5% CO2 at 37° C. for 24 hours, and were used for the assay.
(§2) 3. Measurement of Agonistic Activities on Human β1- and β2-Adrenoceptors
(§3) Test compounds were dissolved in 50% dimethyl sulfoxide to make a 10^−2 M solution. Then, a series of 1:10 dilutions containing a maximal dose of 2×10^−4 M were prepared using D-PBS (−) (Gibco-BRL: LIFE TECHNOLOGIES). The series were used for a testing sample to measure activity. The culture medium of CHO cells of previous section was removed and washed twice with 200 μL D-PBS (−) per well. After that, 50 μL of 3-isobutyl-1-methylxanthine (SIGMA, 1 mM) was added and leaved at rest for 5 minutes, and 50 μL of testing sample were added in them and they were incubated under an atomosphere of 5% CO2 at 37° C. for 30 minutes. cAMP concentrations accumulated in cells were reacted in cAMP-Screen (Applied Biosystems) and were detected by Microplate Luminometer TR717 (Applied Biosystems). The maximum reaction of isoproterenol, a positive contrast, was taken as a 100%, and the concentration of a test compound which gave reaction of the 50% was calculated as an EC50 value. In addition, the ratio of the maximum reaction of the test compound against the maximum reaction of isoproterenol was calculated as an intrinsic activity (I.A.).
(§4) (R)-3′-[[2-[[2-(3-chlorophenyl)-2-hydroxyethyl]aminoethoxy]-[1,1′-biphenyl]-3-carboxylic acid which was described in WO99/65877 was also examined as a comparison example.

The target in test [3] is T3, human β1-adrenoceptor (Homo sapiens, UniProt P08588).
T3 construct: Both ends of a domain including full length of human β1-adrenoceptor were amplified; expressed in transfected cells; host or cells: CHO cells (transient transfection of pCI-neo plasmid, Lipofectamine 2000)
T3 sequence (P08588 whole entry): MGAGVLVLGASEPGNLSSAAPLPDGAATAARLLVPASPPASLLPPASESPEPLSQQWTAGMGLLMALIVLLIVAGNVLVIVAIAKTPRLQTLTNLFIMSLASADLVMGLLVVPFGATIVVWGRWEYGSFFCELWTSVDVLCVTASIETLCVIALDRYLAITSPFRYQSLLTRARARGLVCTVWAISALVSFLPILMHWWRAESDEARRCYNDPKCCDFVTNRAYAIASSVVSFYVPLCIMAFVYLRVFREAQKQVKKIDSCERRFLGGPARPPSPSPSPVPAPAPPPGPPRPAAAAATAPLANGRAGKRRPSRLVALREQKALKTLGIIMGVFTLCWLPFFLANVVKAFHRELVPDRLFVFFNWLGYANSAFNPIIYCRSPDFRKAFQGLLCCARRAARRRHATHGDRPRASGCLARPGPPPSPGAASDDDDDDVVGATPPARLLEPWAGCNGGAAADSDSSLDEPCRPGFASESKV
Put plainly: Measurement of agonistic activities on human β1-adrenoceptor (cAMP accumulation in transfected CHO cells). The conditions noted are these: CHO cells expressing human β1-adrenoceptor; for Emax: maximum reaction relative to isoproterenol (100%), read-out: β1 receptor I.A. (intrinsic activity); for EC50: cAMP, concentration giving 50% of the maximum reaction of isoproterenol, read-out: β1 receptor EC50.
Excerpt: as §1
Both ends of a domain including full length of human β1-adrenoceptor were amplified on the basis of DNA base information that is registered with GenBank/EMBL data base as Accession No. J03019. DNA fragment which was amplified was inserted into a vector for cloning and amplified in Escherichia coli bacteria. The plasmid which was cloned was inserted into a vector pCI-neo (Promega) for protein expression and plasmid DNA was extracted and purified, then it was used for a preparation of the following expression cells.
1) Preparation of Human β1-Adrenoceptor Expressed Cells
The plasmid (320 ng) for expression which was obtained in the previous section was transfected into 5×10^4 CHO cells suspended in DMEM (Gibco-BRL: LIFE TECHNOLOGIES) containing 10% fetal bovine serum (Sanko Junyaku) by means of Lipofectoamine2000 (Invitrogen). These cells were dispensed in 96 well plate by 5×10^4 cells/100 μL per well and were cultured under an atmosphere of 5% CO2 at 37° C. for 24 hours, and were used for the assay.
as §2, §3, §4

T1 sequence (P13945 whole entry): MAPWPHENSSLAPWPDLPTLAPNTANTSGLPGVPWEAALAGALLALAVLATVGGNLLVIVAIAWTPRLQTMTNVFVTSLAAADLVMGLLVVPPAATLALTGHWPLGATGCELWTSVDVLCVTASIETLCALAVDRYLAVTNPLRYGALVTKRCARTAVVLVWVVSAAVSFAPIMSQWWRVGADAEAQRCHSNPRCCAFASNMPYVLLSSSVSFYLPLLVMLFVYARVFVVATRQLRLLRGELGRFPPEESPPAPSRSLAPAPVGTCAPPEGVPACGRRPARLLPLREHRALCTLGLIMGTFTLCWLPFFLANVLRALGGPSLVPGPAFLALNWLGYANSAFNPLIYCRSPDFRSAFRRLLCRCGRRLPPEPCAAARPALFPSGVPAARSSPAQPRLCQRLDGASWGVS

As for `Cc1cc(-c2ccc(OCC(=O)O)cc2)cc(C)c1OCCN[C@@H](C)[C@H](O)c1ccc(O)c(NS(C)(=O)=O)c1` [Compound 9, (4′-{2-[(1S,2R)-2-Hydroxy-2-(4-hydroxy-3-methanesulfonylaminophenyl)-1-methylethylamino]ethoxy}-3′,5′-dimethylbiphenyl-4-yloxy)acetic acid], the EC50 in test [1] is 14.2 nM; in test [2], 200 nM. Moreover, the figures for the Emax in test [1], in test [2] and in test [3] were 222%, 60% and 49%, respectively.
Take `CS(=O)(=O)Nc1cc([C@@H](O)CNCCOc2ccc(-c3ccc(C(=O)O)c(C(=O)O)c3)cc2)ccc1O` [Compound 21, 4′-{2-[(R)-2-Hydroxy-2-(4-hydroxy-3-methanesulfonylaminophenyl)ethylamino]ethoxy}biphenyl-3,4-dicarboxylic acid]: the EC50 in test [1] was 57.1 nM; in test [2] it was 4490 nM; in test [3] it was 9330 nM. Further, the Emax is 154% in test [1], 61% in test [2] and 86% in test [3].
In the case of `CCOc1cc(-c2ccc(OCCNC[C@H](O)c3ccc(O)c(NS(C)(=O)=O)c3)cc2)ccc1C(=O)O` [Compound 28, 3-Ethoxy-4′-{2-[(R)-2-hydroxy-2-(4-hydroxy-3-methanesulfonylaminophenyl)ethylamino]ethoxy}biphenyl-4-carboxylic acid], the EC50 in test [1] was determined as 19.3 nM; in test [3], 1670 nM. For the same compound, the Emax came to 112% in test [1], 27% in test [2] and 85% in test [3].
For `O=C(O)c1cccc(-c2cccc(OCCNC[C@H](O)c3cccc(Cl)c3)c2)c1` [comparison, reference compound], the Emax stood at 27% in test [1], 15% in test [2] and 60% in test [3]. For the same compound, the EC50 in test [3] was found to be 742 nM.

Usually EC50 stands for the concentration at which the effect is half-maximal.
